# Reference: US10760052B2, “Method of inhibiting tau phosphorylation” (priority 2012, dated 2020)
# Where two headings read alike, the source gives them in different places.
# Molecular target: T1, mu opiate receptor (MOR) (Rattus norvegicus, UniProt P33535)
# T1 construct: from tissue; host or cells: striatum (membrane preparation)
# Format: biochemical
# Details: for Concentration of FLNA-Binding Compound as Agonist 0.1 μM / Concentration of FLNA-Binding Compound as Agonist 1 μM / Concentration of FLNA-Binding Compound as Agonist 1 μM + BFNA: [35S]GTPγS binding to Gαo in striatal membranes; for Concentration of FLNA-Binding Compound as Agonist 0.1 μM: compound 0.1 μM; for Concentration of FLNA-Binding Compound as Agonist 1 μM: compound 1 μM; for Concentration of FLNA-Binding Compound as Agonist 1 μM + BFNA: compound 1 μM plus 1 μM β-funaltrexamine (MOR antagonist)
# [1] = 0.1 μM compound, striatal membranes, Series C-2
# [2] = 1 μM compound + 1 μM β-FNA (selective MOR antagonist), Series C-2
# [3] = 1 μM compound, striatal membranes, Series C-2
# T1 sequence (P33535 whole entry): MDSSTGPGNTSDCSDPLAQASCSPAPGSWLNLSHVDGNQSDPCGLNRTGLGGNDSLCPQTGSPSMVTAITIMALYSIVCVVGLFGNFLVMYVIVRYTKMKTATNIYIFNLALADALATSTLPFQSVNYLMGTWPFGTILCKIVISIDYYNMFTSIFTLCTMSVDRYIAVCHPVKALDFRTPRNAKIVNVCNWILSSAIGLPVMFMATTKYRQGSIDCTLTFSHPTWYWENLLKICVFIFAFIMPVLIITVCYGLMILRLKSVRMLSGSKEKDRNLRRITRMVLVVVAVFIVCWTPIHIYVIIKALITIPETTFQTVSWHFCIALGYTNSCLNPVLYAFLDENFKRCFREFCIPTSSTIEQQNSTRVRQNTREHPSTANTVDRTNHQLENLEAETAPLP
Structure (SMILES),% DAMGO (0.1 μM),% DAMGO (1 μM),% DAMGO + BFNA,"[35S]GTPγS binding, FLNA-Binding Compound as Agonist at 0.1 μM [1]","[35S]GTPγS binding, FLNA-Binding Compound as Agonist at 1 μM + BFNA [2]","[35S]GTPγS binding, FLNA-Binding Compound as Agonist at 1 μM [3]",Concentration of FLNA-Binding Compound as Agonist 0.1 μM,Concentration of FLNA-Binding Compound as Agonist 1 μM,Concentration of FLNA-Binding Compound as Agonist 1 μM + BFNA,"[35S]GTPγS binding, FLNA-Binding Compound as Agonist at 0.1 μM","[35S]GTPγS binding, FLNA-Binding Compound as Agonist at 1 μM","[35S]GTPγS binding, FLNA-Binding Compound as Agonist at 1 μM + BFNA"
O=C1CN(C2CCc3ccccc3C2)C2(CCN(S(=O)(=O)c3ccccc3)CC2)N1 (stereo not drawn) [C0136M(P5)],93.4%,95.6%,153.6%,176.8%,74.5%,237.3%,–,–,–,–,–,–
O=C(OCc1ccccc1)c1ccc(S(=O)(=O)N2CCC3(CC2)OCCN3S(=O)(=O)c2ccc(C(=O)OCc3ccccc3)cc2)cc1 [Compound C0042],98.9%,119.2%,666.3%,–,–,–,167.1%,260.9%,110.6%,–,–,–
CC(=O)c1ccc(S(=O)(=O)N2CC(CN(C)C)OC23CCN(C)CC3)cc1 (stereo not drawn) [Compound C0108M],108.7%,104.1%,158.6%,205.6%,76.9%,258.5%,–,–,–,–,–,–
CC1CN(CC(O)COc2ccc(Cl)cc2)CC(C)O1 (stereo not drawn) [Compound A0047],118.8%,92.4%,157.6%,–,–,–,233.0%,255.0%,116.5%,–,–,–
COc1cccc(S(=O)(=O)N2CCC3(CC2)OCCN3S(=O)(=O)c2cccc(OC)c2)c1 [Compound C0002],51.4%,33.9%,6.1%,–,–,–,88.4%,93.8%,3.9%,–,–,–
COc1ccc(C(=O)N2CCC3(CC2)OCCN3S(=O)(=O)c2ccc(OC)cc2)cc1 [Compound C0018],110.7%,95.5%,162.1%,–,–,–,195.5%,247.7%,106.5%,–,–,–
CCOc1ccc(C(=O)CC2c3c(cc4c(c3OC)OCO4)CC[N+]2(C)C)cc1F (stereo not drawn) [Compound B0020],30.1%,68.0%,47.8%,–,–,–,51.6%,181.6%,24.9%,–,–,–
COc1ccc(NC(=O)N2CCC3(CC2)NCCO3)cc1 [Compound C0151M-2],201.6%,122.0%,233.1%,346.8%,212.8%,397.6%,–,–,–,–,–,–
COc1ccc(CCC(O)CC2c3c(cc4c(c3OC)OCO4)CC[N+]2(C)C)cc1 (stereo not drawn) [Compound B0049],102.8%,143.1%,506.5%,–,–,–,181.6%,364.0%,133.2%,–,–,–
COc1ccc(N2CCN(CC(O)COC3CC(C)CCC3C(C)C)CC2)c(OC)c1 (stereo not drawn) [Compound A0012],99.9%,80.7%,461.9%,–,–,–,149.3%,185.7%,122.4%,–,–,–
COc1c2c(cc3c1C(CC(=O)Cc1ccc(Br)cc1)[N+](C)(C)CC3)OCO2 (stereo not drawn) [Compound B0011],95.7%,78.7%,120.0%,–,–,–,158.6%,212.6%,78.0%,–,–,–
CC(=O)c1ccc(S(=O)(=O)N2CCC3(CC2)NCCS3)cc1 [Compound C0060],114.8%,93.9%,327.0%,166.5%,143.9%,218.9%,–,–,–,–,–,–
CC1CCC(C(C)C)C(OCC(CN2CC(C)OC(C)C2)NCc2ccccc2)C1 (stereo not drawn) [Compound A0033],79.4%,92.2%,159.9%,–,–,–,155.8%,254.6%,118.2%,–,–,–
CC1CCC(C(C)C)C(OCC(O)CN2CCCCC2C)C1 (stereo not drawn) [Compound A0007],68.3%,96.4%,152.5%,–,–,–,102.0%,221.9%,40.4%,–,–,–
O=S(=O)(c1ccc(Cl)cc1)N1CCC2(CC1)OCCN2S(=O)(=O)c1ccc(Cl)cc1 [Compound C0067],82.9%,81.5%,97.1%,–,–,–,142.7%,179.0%,33.5%,–,–,–
O=S(=O)(c1ccc(Br)c(C(F)(F)F)c1)N1CCC2(CC1)OCCN2S(=O)(=O)c1ccc(Br)c(C(F)(F)F)c1 [Compound C0077],109.5%,104.9%,621.4%,–,–,–,192.7%,265.4%,136.7%,–,–,–
COc1ccc(C(=O)CC2c3c(cc4c(c3OC)OCO4)CC[N+]2(C)C)cc1OC (stereo not drawn) [Compound B0026],88.8%,87.4%,55.3%,–,–,–,152.0%,233.3%,28.8%,–,–,–
CCc1ccc(S(=O)(=O)N2CCOC23CCN(CC2CC2)CC3)cc1 [Compound C0135M],85.3%,124.9%,233.6%,–,–,–,–,–,–,161.3%,310.1%,113.3%
O=[N+]([O-])c1ccc(S(=O)(=O)N2CCC3(CC2)NCCS3)cc1 [Compound C0044],102.8%,128.0%,356.0%,173.7%,59.1%,280.1%,–,–,–,–,–,–
COc1cc(C(=O)CC2c3c(cc4c(c3OC)OCO4)CC[N+]2(C)C)cc(OC)c1OC (stereo not drawn) [Compound B0037],76.5%,80.4%,325.8%,–,–,–,119.8%,186.0%,106.2%,–,–,–
COc1ccc(CCCCC2c3c(cc4c(c3OC)OCO4)CC[N+]2(C)C)cc1 (stereo not drawn) [Compound B0056],98.9%,113.6%,158.9%,–,–,–,174.7%,288.8%,41.8%,–,–,–
O=C(c1ccc([N+](=O)[O-])cc1)N1CCC2(CC1)OCCN2S(=O)(=O)c1ccc([N+](=O)[O-])cc1 [Compound C0033],85.9%,80.6%,235.0%,–,–,–,134.5%,186.4%,76.6%,–,–,–
